In patent US10829501B2 (BRISTOL-MYERS SQUIBB COMPANY, priority 2016, dated 2020) one finds IC50 data, which are given here for 26 compounds.

For orientation: IC50 means the concentration that gives 50% inhibition.

Where a name gives a salt, the structure may show the parent alone. Bounds are passed on as bounds.

The target of the first assay is ROCK2 (Homo sapiens, UniProt O75116). Nature of the assay: ROCK2 kinase inhibition assay (LABCHIP 3000 Reader, FITC peptide substrate).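 Also: rho kinase reaction read by separating phosphorylated from unphosphorylated peptide on chip, with inhibition of kinase activity computed per concentration across a dose-response series.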
Sequence of ROCK2 (O75116 whole entry, species assumed): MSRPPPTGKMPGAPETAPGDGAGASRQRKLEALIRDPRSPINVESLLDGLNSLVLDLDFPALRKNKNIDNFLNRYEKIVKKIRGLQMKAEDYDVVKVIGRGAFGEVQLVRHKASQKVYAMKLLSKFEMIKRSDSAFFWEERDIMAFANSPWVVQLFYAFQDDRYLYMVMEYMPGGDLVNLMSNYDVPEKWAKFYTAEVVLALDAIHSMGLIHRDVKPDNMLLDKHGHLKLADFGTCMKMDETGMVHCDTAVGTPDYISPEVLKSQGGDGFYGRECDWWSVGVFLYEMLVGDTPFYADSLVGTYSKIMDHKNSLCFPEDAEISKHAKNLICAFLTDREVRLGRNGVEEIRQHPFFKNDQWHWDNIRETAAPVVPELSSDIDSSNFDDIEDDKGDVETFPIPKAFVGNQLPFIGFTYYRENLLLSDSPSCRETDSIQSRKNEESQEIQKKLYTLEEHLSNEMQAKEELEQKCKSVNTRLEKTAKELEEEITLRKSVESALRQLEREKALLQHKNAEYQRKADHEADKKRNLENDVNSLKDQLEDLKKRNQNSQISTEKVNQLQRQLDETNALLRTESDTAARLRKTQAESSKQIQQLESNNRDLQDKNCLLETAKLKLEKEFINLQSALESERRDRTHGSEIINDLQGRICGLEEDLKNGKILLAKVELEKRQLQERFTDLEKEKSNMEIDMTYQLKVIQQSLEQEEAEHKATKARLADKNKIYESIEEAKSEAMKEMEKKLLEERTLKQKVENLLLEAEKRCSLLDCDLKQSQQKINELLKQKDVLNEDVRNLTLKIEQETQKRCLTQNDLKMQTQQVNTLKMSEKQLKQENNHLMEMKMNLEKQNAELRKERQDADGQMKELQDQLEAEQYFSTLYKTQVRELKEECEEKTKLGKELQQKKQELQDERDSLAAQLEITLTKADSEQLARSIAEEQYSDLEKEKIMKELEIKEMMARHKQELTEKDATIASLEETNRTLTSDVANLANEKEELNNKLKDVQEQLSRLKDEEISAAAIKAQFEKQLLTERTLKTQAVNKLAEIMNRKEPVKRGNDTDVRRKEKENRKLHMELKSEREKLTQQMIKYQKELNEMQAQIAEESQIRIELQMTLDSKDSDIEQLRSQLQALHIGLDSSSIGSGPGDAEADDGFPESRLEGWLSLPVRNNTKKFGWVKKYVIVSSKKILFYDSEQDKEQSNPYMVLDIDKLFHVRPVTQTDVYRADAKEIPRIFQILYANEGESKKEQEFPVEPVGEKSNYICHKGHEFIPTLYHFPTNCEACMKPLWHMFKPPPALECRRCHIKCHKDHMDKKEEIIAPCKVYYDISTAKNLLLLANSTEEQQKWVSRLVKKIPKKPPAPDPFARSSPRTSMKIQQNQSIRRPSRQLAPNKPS
Details: not given
`Cn1cc(-c2ccc3c(C(=O)NC4CC5(C4)CC(Oc4ncccc4C(N)=O)C5)nc(C(F)F)n3c2)c(C(F)(F)F)n1` [Example 438, N-((aR)-6-((3-carbamoylpyridin-2-yl)oxy)spiro[3.3]heptan-2-yl)-3-(difluoromethyl)-6-(1-methyl-3-(trifluoromethyl)-1H-pyrazol-4-yl)imidazo[1,5-a]pyridine-1-carboxamide]: the IC50 was 0.005 to 0.05 µM.

With `NC(=O)c1cccnc1O[C@H]1CC2(C[C@H](NC(=O)c3cnn4cc(OCC(O)(C(F)(F)F)C(F)(F)F)ccc34)C2)C1` (stereo partly drawn) [Example 315, N-((aR)-6-((3-carbamoylpyridin-2-yl)oxy)spiro[3.3]heptan-2-yl)-6-(3,3,3-trifluoro-2-hydroxy-2-(trifluoromethyl)propoxy)pyrazolo[1,5-a]pyridine-3-carboxamide], the IC50 was in the range of 0.005 to 0.05 µM.

As for `NC(=O)c1cccnc1O[C@H]1CC2(C[C@H](NC(=O)c3cnn4c(C5CC5)c(OC5CCS(=O)(=O)CC5)ccc34)C2)C1` (stereo partly drawn) [Example 351, N-((aR)-6-((3-carbamoylpyridin-2-yl)oxy)spiro[3.3]heptan-2-yl)-7-cyclopropyl-6-((1,1-dioxidotetrahydro-2H-thiopyran-4-yl)oxy)pyrazolo[1,5-a]pyridine-3-carboxamide], the IC50 was below 0.005 µM.

`NC(=O)c1cccnc1O[C@H]1CC2(C[C@H](NC(=O)c3nnn4cc(-c5cnn(C6CC6)c5)ccc34)C2)C1` (stereo partly drawn) [Example 364, N-((aR)-6-((3-carbamoylpyridin-2-yl)oxy)spiro[3.3]heptan-2-yl)-6-(1-cyclopropyl-1H-pyrazol-4-yl)-[1,2,3]triazolo[1,5-a]pyridine-3-carboxamide] gave an IC50 below 0.005 µM.

The compound `CC(C)(O)COc1ccc2c(C(=O)NC3CC4(C3)CC(Oc3cc(C5CCNC5)ccc3C(N)=O)C4)cnn2c1` (centres unmarked) [Example 301, N-(6-(2-carbamoyl-5-(pyrrolidin-3-yl)phenoxy)spiro[3.3]heptan-2-yl)-6-(2-hydroxy-2-methylpropoxy)pyrazolo[1,5-a]pyridine-3-carboxamide] yielded an IC50 of 0.005 to 0.05 µM.

`COc1cccc(C(N)=O)c1OC1CC2(CC(NC(=O)c3cnn4c(C5CC5)c(OCC(C)(C)O)ccc34)C2)C1` (centres unmarked) [Example 208, N-(6-(2-carbamoyl-6-methoxyphenoxy)spiro[3.3]heptan-2-yl)-7-cyclopropyl-6-(2-hydroxy-2-methylpropoxy)pyrazolo[1,5-a]pyridine-3-carboxamide] came in with a half-inhibitory concentration (IC50) of 0.25 to 2.5 µM.

`Cn1cc(-c2c(OCC(C)(C)O)ccc3c(C(=O)N[C@H]4CC5(C4)C[C@H](Oc4ncccc4C(N)=O)C5)cnn23)cn1` (stereo partly drawn) [Example 101, N-((aR)-6-((3-carbamoylpyridin-2-yl)oxy)spiro[3.3]heptan-2-yl)-6-(2-hydroxy-2-methylpropoxy)-7-(1-methyl-1H-pyrazol-4-yl)pyrazolo[1,5-a]pyridine-3-carboxamide, trifluoroacetate] gave an IC50 of 0.005 to 0.05 µM.

As to `[2H]C([2H])([2H])n1cc(-c2ccc3c(C(=O)N[C@H]4CC5(C4)C[C@H](Oc4ncccc4C(N)=O)C5)nnn3c2)cn1` (stereo partly drawn) [Example 363, N-((aR)-6-((3-carbamoylpyridin-2-yl)oxy)spiro[3.3]heptan-2-yl)-6-(1-(^2H3)methyl-1H-pyrazol-4-yl)-[1,2,3]triazolo[1,5-a]pyridine-3-carboxamide], the IC50 is below 0.005 µM.

For the compound `[H][C@]1(Oc2ncccc2C(N)=O)C[C@@]2(C[C@H](NC(=O)c3cnn4c(C5CC5)c(OCC(C)(C)O)ccc34)C2)C1` (stereo partly drawn) [Example 42, N-((aR)-6-((3-carbamoylpyridin-2-yl)oxy)spiro[3.3]heptan-2-yl)-7-cyclopropyl-6-(2-hydroxy-2-methylpropoxy)pyrazolo[1,5-a]pyridine-3-carboxamide], the half-inhibitory concentration (IC50) is below 0.005 µM.

The compound `[H][C@]1(Oc2ncccc2C(N)=O)C[C@@]2(C[C@H](NC(=O)c3nnn4cc(N5CCOCC5)ccc34)C2)C1` (stereo partly drawn) [Example 369, N-((aR)-6-((3-carbamoylpyridin-2-yl)oxy)spiro[3.3]heptan-2-yl)-6-morpholino-[1,2,3]triazolo[1,5-a]pyridine-3-carboxamide] returned an IC50 of 0.25 to 2.5 µM.

`NC(=O)c1ccccc1O[C@H]1CC2(C[C@H](NC(=O)c3cnc4cc(OCCC(F)(F)F)ccn34)C2)C1` (stereo partly drawn) [Example 18, N-[(aR)-6-(2-carbamoylphenoxy)spiro[3.3]heptan-2-yl]-7-(3,3,3-trifluoropropoxy)imidazo [1,2-a]pyridine-3-carboxamdie] had a half-inhibitory concentration (IC50) below 0.005 µM.

Take `CN1CCN(CCCc2ccc(C(N)=O)c(OC3CC4(CC(NC(=O)c5cnn6c(C7CC7)c(OCC(C)(C)O)ccc56)C4)C3)c2)CC1` (centres unmarked) [Example 267, N-(6-(2-carbamoyl-5-(3-(4-methylpiperazin-1-yl)propyl)phenoxy)spiro[3.3]heptan-2-yl)-7-cyclopropyl-6-(2-hydroxy-2-methylpropoxy)pyrazolo[1,5-a]pyridine-3-carboxamide]: the IC50 was 0.005 to 0.05 µM.

`NC(=O)c1ccccc1O[C@H]1CC2(C[C@H](NC(=O)c3cnn4cc(N5CCC(F)(F)C5)ccc34)C2)C1` (stereo partly drawn) [Example 23, N-[(aR)-6-(2-carbamoylphenoxy)spiro[3.3]heptan-2-yl]-6-(3,3-difluoropyrrolidin-1-yl)pyrazolo[1,5-a]pyridine-3-carboxamide] came in with an IC50 below 0.005 µM.

Compound `COc1ccc(C(N)=O)c(O[C@H]2CC3(C[C@H](NC(=O)c4cnn5c(C6CC6)c(OCC(C)(C)O)ccc45)C3)C2)n1` (stereo partly drawn) [Example 167, N-((aR)-6-((3-carbamoyl-6-methoxypyridin-2-yl)oxy)spiro[3.3]heptan-2-yl)-7-cyclopropyl-6-(2-hydroxy-2-methylpropoxy)pyrazolo [1,5-a]pyridine-3-carboxamide] displayed an IC50 below 0.005 µM.

`CC(C)(O)COc1ccc2c(C(=O)NC3CC4(C3)CC(Oc3nc(OCCN)ncc3C(N)=O)C4)cnn2c1C1CC1` (centres unmarked) [Example 306, N-(6-((2-(2-aminoethoxy)-5-carbamoylpyrimidin-4-yl)oxy)spiro[3.3]heptan-2-yl)-7-cyclopropyl-6-(2-hydroxy-2-methylpropoxy)pyrazolo[1,5-a]pyridine-3-carboxamide] registered a half-inhibitory concentration (IC50) of 0.05 to 0.25 µM.

Compound `COC(=O)N1CC(Oc2ccc3c(C(=O)N[C@H]4CC5(C4)C[C@H](Oc4ccccc4C(N)=O)C5)cnn3c2)C1` (stereo partly drawn) [Example 27, methyl 3-((3-(((aR)-6-(2-carbamoylphenoxy)spiro[3.3]heptan-2-yl)carbamoyl)pyrazolo[1,5-a]pyridin-6-yl)oxy)azetidine-1-carboxylate] had an IC50 of 0.005 to 0.05 µM.

For `[2H]C([2H])([2H])n1nc2cc(F)ccc2c1C(=O)N[C@H]1CC2(C1)C[C@H](Oc1ncccc1C(N)=O)C2` (stereo partly drawn) [Example 176, 6-fluoro-2-(^2H3)methyl-N-[(aR)-6-[(3-carbamoylpyridin-2-yl)oxy]spiro[3.3]heptan-2-yl]-2H-indazole-3-carboxamide, trifluoroacetate], the IC50 was in the range of 0.25 to 2.5 µM.

`CC(C)(O)COc1ccc2c(C(=O)NC3CC4(C3)CC(Oc3cc(-c5cccc(OCC(F)(F)F)c5)ccc3C(N)=O)C4)cnn2c1` (centres unmarked) [Example 238, N-(6-((4-carbamoyl-3′-(2,2,2-trifluoroethoxy)-[1,1′-biphenyl]-3-yl)oxy)spiro[3.3]heptan-2-yl)-6-(2-hydroxy-2-methylpropoxy)pyrazolo[1,5-a]pyridine-3-carboxamide]: the half-maximal inhibitory concentration (IC50) is 0.05 to 0.25 µM.

For `COC(=O)N1CC(Oc2ccc3c(C(=O)N[C@H]4CC5(C4)C[C@H](Oc4ncccc4C(N)=O)C5)cnn3c2)C1` (stereo partly drawn) [Example 347, methyl 3-((3-(((aR)-6-((3-carbamoylpyridin-2-yl)oxy)spiro[3.3]heptan-2-yl)carbamoyl)pyrazolo[1,5-a]pyridin-6-yl)oxy)azetidine-1-carboxylate], the IC50 lay in the range of 0.005 to 0.05 µM.

On to `[H][C@]1(Oc2ncccc2C(N)=O)C[C@@]2(C[C@H](NC(=O)c3cnn(-c4ccccc4)c3C)C2)C1` (some centres unmarked) [Example 379], for which the IC50 fell in the range of 0.05 to 0.25 µM.

Turning to `[H][C@]1(Oc2ncccc2C(N)=O)C[C@@]2(C[C@H](NC(=O)c3nn(C(C)(C)C(N)=O)c4cc(OCCC(F)(F)F)ccc34)C2)C1` (stereo partly drawn) [Example 410, 1-(1-amino-2-methyl-1-oxopropan-2-yl)-N-((aR)-6-((3-carbamoylpyridin-2-yl)oxy)spiro[3.3]heptan-2-yl)-6-(3,3,3-trifluoropropoxy)-1H-indazole-3-carboxamide, TFA], the IC50 was in the range of 0.005 to 0.05 µM.

Staying with this assay, now noted: read-out: ROCK2 Activity (ROCK2 IC50); 5 μM ATP, 1.5 μM peptide substrate, pH 7.5.
With `NC(=O)c1cccnc1OC1CC2(CC(NC(=O)c3nc(C(F)(F)F)n4cc(OS(=O)(=O)C(F)(F)F)ccc34)C2)C1` [Example 432, 1-(((aR)-6-((3-carbamoylpyridin-2-yl)oxy)spiro[3.3]heptan-2-yl)carbamoyl)-3-(trifluoromethyl)imidazo[1,5-a]pyridin-6-yl Trifluoromethanesulfonate], the IC50 fell in the range of 0.005 to 0.05 µM.

Consider `Cc1nn(Cc2ccc(F)cc2)cc1C(=O)NC1CC2(C1)CC(Oc1ncccc1C(N)=O)C2` [Example 382, N-[(aR)2-[(6-{1-[(4-fluorophenyl)methyl]-3-methyl-1H-pyrazole-4-amido}spiro[3.3]heptan-2-yl)oxy]pyridine-3-carboxamide 1 trifluoroacetic acid salt], for which the IC50 is 0.005 to 0.05 µM.

For the compound `Cc1nc(C(=O)NC2CC3(C2)CC(Oc2ncccc2C(N)=O)C3)c2ccc(-c3cnn(C)c3)cn12` [Example 460, N-((aR)-6-((3-carbamoylpyridin-2-yl)oxy)spiro[3.3]heptan-2-yl)-3-methyl-6-(1-methyl-1H-pyrazol-4-yl)imidazo[1,5-a]pyridine-1-carboxamide], the IC50 fell in the range of 0.005 to 0.05 µM.

Turning to `Cn1cc(-c2ccc3c(C(=O)NC4CC5(C4)CC(Oc4ncccc4C(N)=O)C5)nc(C(F)(F)F)n3c2)cn1` [Example 433, N-((aR)-6-((3-carbamoylpyridin-2-yl)oxy)spiro[3.3]heptan-2-yl)-6-(1-methyl-1H-pyrazol-4-yl)-3-(trifluoromethyl)imidazo[1,5-a]pyridine-1-carboxamide], the IC50 is below 0.005 µM.

As for `NC(=O)c1cccnc1OC1CC2(CC(NC(=O)c3nc(N)nc4ccccc34)C2)C1` [Example 461, 2-Amino-N-((aR)-6-((3-carbamoylpyridin-2-yl)oxy)spiro[3.3]heptan-2-yl)quinazoline-4-carboxamide, 2 TFA], the 50% inhibitory concentration (IC50) lay within 0.05 to 0.25 µM.
